Test results reported in patent US7763660B2, “Inhibitors of Candida albicans” (The University of Vermont and State Agricultural College, priority 2003, dated 2010).

Legend:
C. albicans cells = test: small molecule screen for inhibitors of the Spider media-induced budded-to-hyphal transition; assay type: cell-based, Candida albicans
Method: For the screen, C. albicans cells were grown in YNB media that inhibits hyphal growth and then transferred to 384-well optical plates containing Spider media to induce the budded-to-hyphal transition and hyphal elongation. […] In FIG. 3, the indicated small molecules were added at the indicated concentrations at time 0 and growth was allowed to continue for 4 h at 37° C. before the cells were fixed and observed microscopically. YNB media is well known in the art and contains yeast nitrogen base (DIFCO Labs.), glucose (US Biological) and d-H2O. Spyder media is well known in the art and contains nutrient broth (DIFCO Labs.), mannitol (Sigma-Aldrich), K2HPO4 (Sigma-Aldrich) and d-H2O.
Next, small molecules were assayed for their ability to inhibit the Spider media-induced hyphal growth.
The basic microscopic screen was described in detail above. To identify inhibitors, C. albicans cells are initially grown in YNB media that inhibits hyphal growth and then transferred to 384-well optical assay plates containing Spider media to induce the transition to hyphae. Individual molecules from the Chembridge small molecule library (Kao, R. Y. T., et al., 2002, Proc. Natl. Acad. Sci. USA 99: 10066-10071), or other library, are transferred from a 384-well plate containing stock solutions to individual wells of the assay plates. For convenience, positive and negative controls may be located at each corner of the plate. These plates are incubated at 37° C. for 4 h to allow for hyphal elongation before the cells are fixed and screened. Screening occurs on an inverted Nikon microscope with a computer driven XY stage with DIC/Hoffman optics, digital SPOT® camera and automatic shutter. Pictures are automatically taken of each well with the plate number and well position embedded in the picture through a script written for OpenLab® image analysis software from Improvision (INVIVO, from QED Imaging, Inc.). Inhibitory molecules are identified by rapidly screening a picture of each well for the presence of budded cells and absence of hyphal cells. Each inhibitor is retested at both 4 h and 16 h to eliminate those compounds that are cytotoxic, delay hyphal formation, or delay elongation through a growth defect. Molecules that give consistent inhibition of the budded-to-hyphal transition with continued budded growth with no hyphae out to 16 are further characterized as described below. A dose-response for each molecule is established through serial dilutions in order to determine the threshold concentration of each molecule. Typical threshold concentrations range from about 1 to about 100 micromolar (μM). In addition, the reversibility of each molecule is tested by washing out the molecule and adding fresh Spider media; cells that resume hyphal growth indicate that the molecule is reversible in action and that the molecule's initial effects were not due to cytotoxicity.

[1] = Scott, V. R., et al., 1988; cited from earlier work

SMILES	dose-dependence of the inhibition (C. albicans cells)	reversibility of the inhibition (C. albicans cells)	inhibition of the budded-to-hyphal transition and hyphal growth (C. albicans cells; 0.1 μM, 4 h at 37° C.)	inhibition of the budded-to-hyphal transition and hyphal growth (C. albicans cells; 1.6 μM added at time 0, 4 h at 37° C.)	anti-fungal activity [1]	cell phenotype in the screen (C. albicans cells; 4 h at 37° C. (FIG. 3))	cytotoxicity in the screen (C. albicans cells; 4 h at 37° C. (FIG. 3))
C/C1=C/C(=O)O[C@@H]2C[C@@H](CC[C@H](C)/C=C\C=C\CC1)O[C@@](O)([C@@H]1CSC(=O)N1)C2 [Lat A, latrunculin-A]	dose-dependent	reversible	effect was lost	inhibited the budded-to-hyphal transition and hyphal growth			
C/C1=C\[C@H](C)C[C@H](C)OC(=O)C[C@H](c2ccc(O)cc2)NC(=O)[C@@H](Cc2c(Br)[nH]c3ccccc23)N(C)C(=O)[C@H](C)NC(=O)[C@@H](C)C1 [jasplakinolide]					previously shown to have anti-fungal activity	apparent cell-cycle arrest as small budded cells	dose-dependent cytotoxic molecule
